Values joined by “and” are separate entries in the source; they are usually repeats but may differ in a detail not shown here. Identical values can stand only once. “Also recorded” adds a separate entry of the source. Like-named read-outs stand apart in the source and are kept apart here. Marks after values point to notes of the source that are not given here.
Key:
[1] = target: T1, rat μ-opioid receptor (Rattus norvegicus, UniProt P33535); test: [35S]GTPγS binding assay, MOR; format: biochemical; details: for functional profile at μ opioid receptor: G protein activation; for Kb: read-out: Antagonist activity MOR Ke
T1 construct: expressed in transfected cells; membranes prepared

[2] = tested on: mice; test: Hot plate test; format: in vivo
Procedure: (§1) Kunming strain male and female mice weighing 20 to 24 g were obtained from the Laboratory Animal Center, Chinese Academy of Sciences (Shanghai, China). Mice were housed in groups in a room maintained in a 12/12 h light/dark cycle in a temperature controlled environment with free access to food and water. All research protocols were approved by the Animal Care and Use Committee of Shanghai Institute of Materia Medica, Chinese Academy of Sciences. All experimental procedures were in strict accordance with the National Institutes of Health Guide for the Care and Use of Laboratory Animals.
Hot plate test was performed according to the method described previously[31],[34],[35]. Briefly, mice were placed on a 55 °C heated surface, the latency to licking or jumping was recorded. The cut-off time of 60 s was used to minimize tissue damage. Before formal study, the nociceptive response of each mouse was measured three times, and the mean of the 2nd and 3rd responses was used as pre-drug latency. The mouse not responding within 20 s was excluded. The percentage antinociception was calculated as 100× [(test latency-predrug latency)/(cut-off time -predrug latency)].

[3] = tested on: mice; test: Formalin test; format: in vivo; details: for ED50: Mus musculus, 0.25 h
Procedure: as §1
The formalin test was performed according to our previous work[35]. In brief, the amount of time that mice spent licking or flinching the injected hind paw was recorded after injected with 20 μl 1.0% formalin at the plantar surface of the right hind paw. The mice were observed fro 60 min. The first 10 min was recorded as the phase I, and the rest of time was recorded as phase II. Percentage of analgesia was calculated as 100× (time of control – time of drug)/time of control.

[4] = target: T2, rat δ-opioid receptor (Rattus norvegicus, UniProt P33533); test: [35S]GTPγS binding assay, DOR; format: biochemical; details: read-out: Agonist activity DOR Emax (agonist efficacy at 10 μM)
T2 construct: expressed in transfected cells; membranes prepared

[5] = tested on: mice; test: Rotorod test (sedation); format: in vivo; details: for sedative effect, rotarod test: 15 min after injection
[6] = tested on: mice; test: Abdominal constriction test; format: in vivo; details: for effect of Dezocine on morphine-induced antinociception: 0.05 mg/kg Dezocine; for ED50: Mus musculus; for effect of antagonist pretreatment on Dezocine-produced antinociception: antagonist 20 mg/kg i.p., 24 h before 0.25 mg/kg Dezocine
[7] = target: T3, human κ-opioid receptor (Homo sapiens, UniProt P41145); test: Receptor binding assay, [3H]U69593 competition; details: CHO cell membranes, 1.5 nM [3H]U69593; read-out: κ binding affinity Ki
T3 construct: expressed in transfected cells; membranes prepared

[8] = target: T3, human κ-opioid receptor; test: [35S]GTPγS binding assay, KOR; format: biochemical
[9] = target: T1, rat μ-opioid receptor; test: Receptor binding assay, [3H]DAMGO competition
[10] = target: T2, rat δ-opioid receptor; test: Receptor binding assay, [3H]DPDPE competition; details: read-out: δ binding affinity Ki
[11] = tested on: mice; set-up: method as in PMID 18353307, PMID 25816912; details: 95% confidence limits in parentheses; cited from earlier work
[12] = tested on: mice; set-up: method as in PMID 18353307, PMID 25816912; details: 95% confidence limits in parentheses; cited from earlier work; remark: listed apart in the source
[13] = tested on: mice; set-up: method as in PMID 18353307, PMID 25816912; details: 95% confidence limits in parentheses; cited from earlier work; remark: listed apart in the source
[14] = mice, 15 min after drug administration, 95% confidence limits in parentheses

## C[C@@H](NC(=O)[C@@H](N)Cc1ccc(O)cc1)C(=O)NCC(=O)N(C)[C@@H](Cc1ccccc1)C(=O)NCCO [DAMGO, [D-Ala2,N-Me-Phe4,Gly5-ol]-enkephalin]
[1]; 0.1 nM [35S]GTPγS, percentage of stimulated binding over basal, read-out: Agonist activity MOR Emax
  Emax: 241 ± 33.8%
[1]
  functional profile at μ opioid receptor: full agonist efficacy

## C[C@@]12CCCCC[C@@H](Cc3ccc(O)cc31)[C@@H]2N [Dezocine]
[2]; at 7.5 mg/kg, bell-shaped dose-response curve
  maximal antinociceptive effect, hot-plate test: around 60%
[2]; hot-plate test, time course
  duration of consistent high (close to peak) antinociceptive response: up to 1 h
  onset of antinociceptive action: 5 min
[2]; i.v., s.c., or p.o.
  maximal antinociception, hot-plate test, whatever the route of administration: around 55%
[3]; mice, 15 min after drug administration, 95% confidence limits in parentheses, read-out: Antinociception ED50 Formalin test Phase I
  ED50: 0.4 mg/kg
[3]; mice, 15 min after drug administration, 95% confidence limits in parentheses, read-out: Antinociception ED50 Formalin test Phase II
  ED50: 0.4 mg/kg
[3]; [14]
  Antinociception ED50 Formalin test Phase I: 0.4 (0.2–1.0) mg/kg
  Antinociception ED50 Formalin test Phase II: 0.4 (0.2–0.9) mg/kg
[3]; ratio of ED50 values
  potency relative to morphine, formalin test phase I: approximately 13 fold
  potency relative to morphine, formalin test phase II: 9 fold
[4]
  Emax at 10 µM: 26.1 ± 1%
[5]; 2.5 mg/kg, trend, p = 0.0881
  sedative effect, rotarod test: did not reach significant difference
[5]; 5 mg/kg, p < 0.05 vs saline
  sedative effect, rotarod test: produced significant sedation
[5]; 7.5 and 25 mg/kg
  sedative effect, rotarod test: the sedative effect diminished
[5]; rotarod test
  dose that produced sedative side effects (ceiling effect): 5 mg/kg
[1]
  functional profile at μ opioid receptor: μ partial agonist
  Kb: 10.4 ± 4.9 nM
[1]; read-out: Agonist activity MOR Emax (agonist efficacy at 10 μM)
  Emax at 10 µM: 45.8 ± 1.1%
[1]; rightward shift of DAMGO concentration-response curve, single dose method
  Kb: 10.4 nM
[6]; 0.3 mg/kg morphine
  effect of Dezocine on morphine-induced antinociception: did not affect
[6]; 0.4 mg/kg morphine, p < 0.05
  effect of Dezocine on morphine-induced antinociception: significantly decreased; also recorded: significantly inhibited
[6]; 0.125 mg/kg Dezocine and 0.3 mg/kg morphine
  effect of Dezocine co-administration on morphine antinociception: produced higher antinociception than morphine used alone
[6]; Dezocine pretreatment, U50,488 H 1.2 mg/kg i.p., without β-FNA
  effect of Dezocine on U50,488H-induced antinociception: did not inhibit; also recorded: did not affect
[6]; 0.25 h, mice, 15 min after drug administration, 95% confidence limits in parentheses, read-out: Antinociception ED50 Abdominal constriction test
  ED50: 0.2 mg/kg
[6]; summary over abdominal constriction and formalin tests, read-out: ED50 values of Dezocine-induced antinociception
  ED50: 0.2 to 0.4 mg/kg
[6]; ratio of ED50 values
  potency relative to morphine, abdominal constriction test: 4 fold
[6]; β-FNA pretreatment, U50,488 H 1.2 mg/kg i.p., p < 0.05
  effect of Dezocine on U50,488H-induced antinociception in the presence of β-FNA: significantly decreased
[7]
  Ki: 22 ± 1.52 nM
[8]; G protein activation
  functional profile at κ opioid receptor: κ partial agonist
[8]; at 10 μM, % of the maximal stimulation obtained with U50,488 H
  Agonist activity KOR Emax (agonist efficacy at 10 μM): 33.6 ± 2.4^d %
[8]; read-out: Agonist activity KOR Emax (agonist efficacy at 10 μM), at 10 μM, % of the maximal stimulation obtained with U50,488 H
  Emax at 10 µM: 33 to 45%
[8]; rightward shift of U50,488 H concentration-response curve, single dose method, read-out: Antagonist activity KOR Ke
  Kb: 324.1 nM and 324 nM
[9]; from Ki values
  selectivity for μ over δ opioid receptors: 273 fold
  selectivity for μ over κ opioid receptors: 15 fold
[9]; read-out: µ binding affinity Ki
  Ki: 1.46 ± 0.1 nM
[10]
  Ki: 399 ± 43.3 nM

## CN1CC[C@]23c4c5ccc(O)c4O[C@H]2[C@@H](O)C=C[C@H]3[C@H]1C5 [Morphine]
[11]
  Antinociception ED50 Hot plate test: 6.9 (5.6–8.5)^a mg/kg
[12]
  Antinociception ED50 Formalin test Phase I: 5.1 (4.3–5.9)^b mg/kg
  Antinociception ED50 Formalin test Phase II: 3.1 (2.8–3.3)^b mg/kg
[13]
  Antinociception ED50 Abdominal constriction test: 0.8 (0.5–1.2)^a mg/kg

## Oc1ccc2c3c1O[C@H]1c4[nH]c5c(c4C[C@@]4(O)[C@@H](C2)N(CC2CC2)CC[C@]314)C[C@@]1(O)[C@H]2Cc3ccc(O)c4c3[C@@]1(CCN2CC1CC1)[C@H]5O4 [nor-BNI, nor-binaltorphimine]
[6]; p < 0.05
  effect of antagonist pretreatment on Dezocine-produced antinociception: significantly decreased

## COC(=O)/C=C/C(=O)N[C@@H]1CC[C@@]2(O)[C@H]3Cc4ccc(O)c5c4[C@@]2(CCN3CC2CC2)[C@H]1O5 [β-FNA, β-funaltrexamine]
[6]; p < 0.05
  effect of antagonist pretreatment on Dezocine-produced antinociception: significantly decreased

From publication PMC6148296 (Scientific Reports, 2018)
